Data published in patent publication US8394399B2, “Drug-enhanced adhesion prevention” (Ethicon, Inc., priority 2004, dated 2013).
“And” between values parts separate entries of the source, which are not always exact repeats. Equal entries are not always repeated.

What was measured:
[1] = system: adhesion formation at the sidewall injury; assay: Rabbit peritoneal sidewall adhesion model, 1 week dosing via Alzet miniosmotic pump; assay type: in vivo; set-up: key to Adhesion Tenacity: 0: No adhesions; 1: mild, easily dissectible adhesions; 2: moderate adhesions; non-dissectible, does not tear organ; 3: dense adhesions; non-dissectible, tears when removed; settings: for Adhesion Area Percentage / Adhesion Tenacity: 10 microliter/hr over 7 days, sacrifice after 21 days, individual animals 1-7; for Adhesion Tenacity: score 0-3; for mean adhesion score: group mean of 7 rabbits, placebo control 100±0
Protocol: In the peritoneal sidewall model, rabbits were pre-anesthetized with 1.2 mg/kg acetylpromazine and anesthetized with a mixture of 55 mg/kg ketamine hydrochloride and 5 mg/kg xylazine intramuscularly. Following preparation for sterile surgery, a midline laparotomy was performed. A 3 cm×5 cm area of peritoneum and transversus abdominis muscle was removed on the right lateral abdominal wall. The cecum was exteriorized and digital pressure was exerted to create subserosal hemorrhages (trauma and loss of blood flow) over all cecal surfaces. The cecum was then returned to its normal anatomic position. Tranilast contained in a delivery vehicle as described below was placed in an Alzet® miniosmotic pump (Alza Corporation, Palo Alto, Calif.) to allow continuous release of the molecule through the postsurgical interval. The Alzet miniosmotic pump was placed in the subcutaneous space and a delivery tube connected the pump with the site of injury at the sidewall. Only the delivery vehicle was placed in the pump of control rabbits. The abdominal wall and skin were closed in a standardized manner.
After 21 days, the rabbits were sacrificed and the percentage of the area of the sidewall injury that was involved in adhesions was determined. In addition, the tenacity of the adhesion formed was scored using a system as follows:
With the sidewall model, an initial score to represent the overall extent of adhesions is given (0 to 3).
The percentage of a surface of the sidewall involved in adhesions to various organs are given in the tables below to quantify the overall adhesion score. A reduction in the area and the tenacity of the adhesions would be considered beneficial and efficacious.
(§1) The efficacy of Pemirolast in inhibiting adhesion formation was evaluated using a single pump, filled with one of three dosage levels of mg of Pemirolast per ml of delivery vehicle (0.625 mg/ml, 6.25 mg/ml or 62.5 mg/ml), or placebo control (saline). The drug was placed in an Alzet miniosmotic pump and delivered over 7 days at a rate of 10 microliter/hr. The animals were sacrificed after 21 days.

[2] = Necropsy observations in the sidewall adhesion study; assay type: in vivo, rabbit
Protocol: as §1
However, there was inflammation observed at the abdominal cavity in 1 of 7 and 3 of 7 rabbits at the medium and high dose of drug, respectively.

For Cc1cccn2c(=O)c(-c3nnn[nH]3)cnc12 [Pemirolast, 9-methyl-3-(1H-tetrazol-5-yl)-4H-pyrido [1,2-α]pyrimidin-4-one potassium], the “Adhesion Area Percentage” value ([1]; 0.625 mg/ml in pump) was 80% (2×) and 100% (4×) and 70%, the “Adhesion Tenacity” value ([1]; 0.625 mg/ml in pump) was 1 (5×) and 2 (2×) and the mean adhesion score ([1]; 0.625 mg/ml) was 90.0±4.9. For the same compound, the “Adhesion Area Percentage” value ([1]; 6.25 mg/ml in pump) was 50% and 80% (2×) and 100% (2×) and 70% and 60%, the “Adhesion Tenacity” value ([1]; 6.25 mg/ml in pump) was 1 (6×) and 2 and the mean adhesion score ([1]; 6.25 mg/ml, p=0.007) was 77.1±7.1. The “Adhesion Area Percentage” value ([1]; 62.5 mg/ml in pump) was 70% (2×) and 50% (2×) and 80% (2×) and 100%, the “Adhesion Tenacity” value ([1]; 62.5 mg/ml in pump) was 2 (3×) and 1 (4×) and the mean adhesion score ([1]; 62.5 mg/ml, p=0.001) was 71.4±6.7. For the same compound, the “tenacity of the adhesions formed, relative to control” value ([1]; all dose groups, analysis of variance on the ranks) was “significant reductions”, the “area of adhesion formation, relative to control” value ([1]; sidewall model, reductions in the groups that received the higher doses) was “reduced the area of adhesion formation” and the “clinical signs associated with administration” value ([2]; at necropsy, all doses) was “no clinical signs”. For the same compound, the “inflammation observed at the abdominal cavity (rabbits affected)” value ([2]; high dose (62.5 mg/ml)) was 3 of 7 and the “inflammation observed at the abdominal cavity (rabbits affected)” value ([2]; medium dose (6.25 mg/ml)) was 1 of 7.
